System: RSV strain A2
Assay: RSV antiviral cytoprotection assay in Hep2 cells (96-well and 384-well format, Cell TiterGlo read-out)
Assay type: cell-based, Respiratory Syncytial Virus (RSV)
Conditions: for inhibition at 0.5 µM: HEp-2, 0.5 uM; for EC50: Hep2 cells, class symbols
[1] = human respiratory syncytial virus, RSV-induced cytopathic effect in Hep2 cells, calculated from fitted dose response curve, normalized to 0% and 100%
[2] = human respiratory syncytial virus, HEp-2, RSV-induced cytopathic effects

SMILES | inhibition at 0.5 µM [1] | EC50 [2] | inhibition at 1 µM (human respiratory syncytial virus, HEp-2, 1 uM, RSV-induced cytopathic effect in Hep2 cells, calculated from fitted dose response curve, normalized to 0% and 100%) | % inh @ 0.5 uM (0.5 uM, RSV-induced cytopathic effect in Hep2 cells, calculated from fitted dose response curve, normalized to 0% and 100%) | EC50 (RSV-induced cytopathic effects)
Cc1cn2nc([C@@H]3CCCCN3C(=O)c3cc(Cl)ccc3NC(=O)C3CC3)cc2nc1N1CC[C@H](N)C1 [Compound 219] | 100% | 0.1 to 100 nM |  |  | 
CS(=O)(=O)Nc1ccc(Cl)cc1C(=O)N1CCCC[C@H]1c1cc2nc(N3CC(O)C3)cc(N3CCNCC3)n2n1 [Compound 50] | 100% | 0.1 to 100 nM |  |  | 
Cc1cn2nc([C@@H]3CCCCN3C(=O)c3cccc(Cl)c3C)cc2nc1N1CC[C@H](N)C1 [Compound 331] | 99% | 0.1 to 100 nM |  |  | 
CN1CCCN(c2cc(N3CCC3)nc3cc([C@@H]4CCCCN4C(=O)c4cc(Cl)ccc4NS(C)(=O)=O)nn23)CC1 [Compound 173] | 100% | 0.1 to 100 nM |  |  | 
CS(=O)(=O)Nc1ccc(Cl)cc1C(=O)N1CCCC[C@H]1c1cc2nc(N3CCC3)cc(N3CCCN3)n2n1 [Compound 145] | 99% | 0.1 to 100 nM |  |  | 
CCCn1nccc1C(=O)N1CCCC[C@H]1c1cc2nc(N3CC[C@H](N)C3)c(C)cn2n1 [Compound 300] | 99% | 0.1 to 100 nM |  |  | 
Cc1c[nH]c2cc([C@@H]3CCCCN3C(=O)c3cc(F)ccc3NS(C)(=O)=O)nn2c1=O [Compound 17] | 75% | 101 to 1000 nM | 97% |  | 
CC(C)(C)OC(=O)N1CCN(c2cc(C3CC3)nc3cc([C@@H]4CCCCN4C(=O)c4cc(Cl)ccc4NS(C)(=O)=O)nn23)CC1 [Compound 226] | 100% | 0.1 to 100 nM |  |  | 
CS(=O)(=O)Nc1ccc(Cl)cc1C(=O)N1CCCC[C@H]1c1cc2nc(N3CC(O)C3)cc(N3CCN(CC(F)(F)F)CC3)n2n1 [Compound 83] | 98% | 0.1 to 100 nM |  |  | 
COc1cc(Cl)cc(C(=O)N2CCCC[C@H]2c2cc3nc(N4CC[C@H](N)C4)c(C)cn3n2)c1 [Compound 376] | 100% | 0.1 to 100 nM |  |  | 
Cc1cn2nc([C@@H]3CCCCN3C(=O)c3cncnc3N)cc2nc1N1CC[C@H](N)C1 [Compound 276] | 90% | 101 to 1000 nM |  |  | 
Cc1cn2nc([C@@H]3CCCCN3C(=O)c3cscn3)cc2nc1N1CC[C@H](N)C1 [Compound 270] | 82% | 101 to 1000 nM |  |  | 
CCn1nc(C(=O)N2CCCC[C@H]2c2cc3nc(N4CC[C@H](N)C4)c(C)cn3n2)cc1C [Compound 301] | 100% | 0.1 to 100 nM |  |  | 
CS(=O)(=O)Nc1ccc(N)cc1C(=O)N1CCCC[C@H]1c1cc2nc(N3CCC3)cc(N3CCOCC3)n2n1 [Compound 193] | 100% | 0.1 to 100 nM |  |  | 
Cc1ccc(N2CCCC2=O)c(C(=O)N2CCCC[C@H]2c2cc3nc(C4CC4)cc(C)n3n2)c1 [Compound 112] | 97% | 0.1 to 100 nM |  |  | 
Cc1cn2nc([C@@H]3CCCCN3C(=O)c3ccc(C4CC4)cc3)cc2nc1N1CC[C@H](N)C1 [Compound 313] | 100% | 0.1 to 100 nM |  |  | 
Cc1cc(NS(C)(=O)=O)c(C(=O)N2CCCC[C@H]2c2cc3nc(C4CC4)cc(C)n3n2)s1 [Compound 111] | 95% | 0.1 to 100 nM |  |  | 
Cc1ccc(NS(C)(=O)=O)c(C(=O)N2CCCC[C@H]2c2cc3nc(C)c(C)c(N4CCCCC4)n3n2)c1 [Compound 236] | 98% | 0.1 to 100 nM |  |  | 
Cc1cn2nc([C@@H]3CCCCN3C(=O)c3cc(Cl)ccc3NS(C)(=O)=O)cc2nc1N1CC(=O)C1 [Compound 170] | 100% | 0.1 to 100 nM |  |  | 
Cc1cc(N2CCC2)nc2cc([C@@H]3CCCCN3C(=O)c3cc(Cl)ccc3NS(C)(=O)=O)nn12 [Compound 42] | 100% | 0.1 to 100 nM |  |  | 
Cc1cn2nc([C@@H]3CCCCN3C(=O)c3cc(Cl)ccc3NS(C)(=O)=O)cc2nc1N1CC(OC(=O)[C@@H]2CCCN2)C1 [Compound 171] | 100% | 0.1 to 100 nM |  |  | 
Cc1cn2nc([C@@H]3CCCCN3C(=O)c3cc(Cl)ccc3NS(C)(=O)=O)cc2nc1N1CCCN1 [Compound 140] | 100% | 0.1 to 100 nM |  |  | 
Cc1cn2nc([C@@H]3CCCCN3C(=O)c3c(Cl)c(C)nn3C)cc2nc1N1CC[C@H](N)C1 [Compound 348] | 99% | 0.1 to 100 nM |  |  | 
CN1CCN(c2cc(N3CC(O)C3)nc3cc([C@@H]4CCCCN4C(=O)c4cc(Cl)ccc4NS(C)(=O)=O)nn23)CC1 [Compound 54] | 100% | 0.1 to 100 nM |  |  | 

SMILES | inhibition at 0.5 µM [1] | EC50 [2] | inhibition at 1 µM (human respiratory syncytial virus, HEp-2, 1 uM, RSV-induced cytopathic effect in Hep2 cells, calculated from fitted dose response curve, normalized to 0% and 100%) | % inh @ 0.5 uM (0.5 uM, RSV-induced cytopathic effect in Hep2 cells, calculated from fitted dose response curve, normalized to 0% and 100%) | EC50 (RSV-induced cytopathic effects)
CC(=O)Nc1ccc(Cl)cc1C(=O)N1CCCC[C@H]1c1cc2nc(N3CC(O)C3)c(C)cn2n1 [Compound 224] | 100% | 0.1 to 100 nM |  |  | 
CS(=O)(=O)Nc1ccc(Cl)cc1C(=O)N1CCCC[C@H]1c1cc2nc(N3CCC3)cc(N3CCNCC3)n2n1 [Compound 45] | 100% | 0.1 to 100 nM |  |  | 
Cc1cn2nc([C@@H]3CCCCN3C(=O)c3cc(Cl)ccc3NS(C)(=O)=O)cc2nc1N1CC(OC(=O)[C@@H](N)C(C)C)C1 [Compound 187] | 100% | 0.1 to 100 nM |  |  | 
Cc1nc2cc([C@@H]3CCCCN3C(=O)c3ccccc3NS(C)(=O)=O)nn2c(N(C)C)c1C [Compound 100] | 96% | 0.1 to 100 nM |  |  | 
Cc1cn2nc([C@@H]3CCCCN3C(=O)c3cc(Cl)ccc3NS(C)(=O)=O)cc2nc1N1C[C@@H]2[C@@H](N)[C@@H]2C1 [Compound 148] | 100% | 0.1 to 100 nM |  |  | 
Cc1cn2nc([C@@H]3CCCCN3C(=O)c3ccc(Cl)c(O)c3)cc2nc1N1CC[C@H](N)C1 [Compound 340] | 100% | 0.1 to 100 nM |  |  | 
Cc1cn2nc([C@@H]3CCCCN3C(=O)c3cc(C(F)(F)F)n(C)n3)cc2nc1N1CC[C@H](N)C1 [Compound 400] | 100% | 0.1 to 100 nM |  |  | 
CN(C)CCN(C)c1cc(N2CC(O)C2)nc2cc([C@@H]3CCCCN3C(=O)c3cc(Cl)ccc3NS(C)(=O)=O)nn12 [Compound 55] | 100% | 0.1 to 100 nM |  |  | 
Cc1cn2nc([C@@H]3CCCCN3C(=O)c3ccc4ncsc4c3)cc2nc1N1CC[C@H](N)C1 [Compound 361] | 88% | 0.1 to 100 nM |  |  | 
CS(=O)(=O)Nc1ccc(Cl)cc1C(=O)N1CCCC[C@H]1c1cc2nc(N3CC(O)C3)cc(N3CC(O)C3)n2n1 [Compound 59] | 100% | 0.1 to 100 nM |  |  | 
CS(=O)(=O)Nc1ccc(Cl)cc1C(=O)N1CCCC[C@H]1c1cc2nc(C3CC3)cc(N3CCC3)n2n1 [Compound 64] | 98% | 0.1 to 100 nM |  |  | 
Cc1cn2nc([C@@H]3CCCCN3C(=O)c3cc(Br)ccc3NS(C)(=O)=O)cc2nc1N1CC(O)C1 [Compound 168] | 100% | 0.1 to 100 nM |  |  | 
Cc1ccc(NS(C)(=O)=O)c(C(=O)N2CCCC(C)C2c2cc3[nH]c(C)c(C)c(=O)n3n2)c1 (centres unmarked) [Compound 37] |  |  |  | 100% | 0.1 to 100 nM
Cc1cn2nc([C@@H]3CCCCN3C(=O)c3cc(Cl)ccc3NS(C)(=O)=O)cc2nc1N1CC[C@@H](N)C1 [Compound 232] | 100% | 0.1 to 100 nM |  |  | 
Cc1cn2nc([C@@H]3CCCCN3C(=O)c3scc4c3OCCO4)cc2nc1N1CC[C@H](N)C1 [Compound 373] | 99% | 0.1 to 100 nM |  |  | 
Cc1cc(C2CC2)nc2cc([C@@H]3CCCCN3C(=O)C(c3ccccc3)N(C)C)nn12 (some centres unmarked) [Compound 239] | 36% | 101 to 1000 nM |  |  | 
Cc1cn2nc([C@@H]3CCCCN3C(=O)c3ccc(F)c(C)c3Cl)cc2nc1N1CC[C@H](N)C1 [Compound 380] | 80% | 101 to 1000 nM |  |  | 
CS(=O)(=O)Nc1ccc(Cl)cc1C(=O)N1CCCC[C@H]1c1cc2nc(N3CCC3)cc(N3CCOCC3)n2n1 [Compound 67] | 100% | 0.1 to 100 nM |  |  | 
Cc1ccc(N2CCCS2(=O)=O)c(C(=O)N2CCCC[C@H]2c2cc3nc(C4CC4)cc(C)n3n2)c1 [Compound 113] | 100% | 0.1 to 100 nM |  |  | 
Cc1cn2nc([C@@H]3CCCCN3C(=O)c3cc(Cl)ccc3NS(C)(=O)=O)cc2nc1N1CCC[C@H]1CN [Compound 203] | 86% | 101 to 1000 nM |  |  | 
Cc1cc(C2CC2)nc2cc([C@@H]3CCCCN3C(=O)c3cc(Br)ccc3NS(C)(=O)=O)nn12 [Compound 122] | 99% | 0.1 to 100 nM |  |  | 
CS(=O)(=O)Nc1ccc(Cl)cc1C(=O)N1CCCC[C@H]1c1cc2nc(N3CCC3)cc(N3CC(N)C(C(=O)N4CCC4)C3)n2n1 (some centres unmarked) [Compound 164] | 100% | 0.1 to 100 nM |  |  | 
Cc1cn2nc([C@@H]3CCCCN3C(=O)c3cc(Cl)ccc3NS(C)(=O)=O)cc2nc1N1CCC(C#N)CC1 [Compound 215] | 99% | 0.1 to 100 nM |  |  | 
